{"source": "patent US20180280450A1", "about": "“METHOD OF PROMOTING IMMUNE HEALTH USING THE WATER-SOLUBLE COMPONENT FROM GENUS EUGLENA ORGANISM” (KEMIN INDUSTRIES, INC., priority 2017, published 2018)", "key": {"T-cells": {"system": "T-cells", "experiment": "Immune cell activation by flow cytometry (CD69/CD25) on T-cells in PBMC cultures", "assay_type": "cell-based, human", "details": "24-hour PBMC cultures", "protocol": "(§1) Human peripheral blood mononuclear cell (PBMC) cultures were used for this testing. A set of cultures was left untreated as negative control cultures for immune activation. Triplicate sets of cultures were treated with serial dilutions of the test product. The inflammatory bacterial lipopolysaccharide LPS from E. coli was used as a positive control for activation. The cultures were incubated for 24 hours, after which the cells and the culture supernatants were harvested and used to monitor the reactions in each culture. […]\n(§2) The cells were stained with a combination of monoclonal antibodies to monitor activation status, and analyzed by multi-parameter flow cytometry, using an acoustic dual-laser Attune® flow cytometer. […]\n(§3) Immune cell activation was analyzed after the cell viability testing. […] The cells were stained with a combination of monoclonal antibodies to monitor activation, and analyzed by multi-parameter flow cytometry, using an acoustic dual laser Attune® flow cytometer. […]\n(§4) The cellular staining for activation, performed using a fluorescently labelled monoclonal antibody to the CD69 and CD25 activation markers, allowed researchers to measure cellular activation by fluorescence intensity. […]"}, "[1]": {"system": "CD69/CD25 double positive lymphocytes", "experiment": "CD69/CD25 double positive lymphocytes by flow cytometry in PBMC cultures", "assay_type": "cell-based, human", "details": "24-hour PBMC cultures, dose not specified", "protocol": "as §1, §2, §3, §4"}, "non-T non-NK lymphocytes": {"system": "non-T non-NK lymphocytes", "experiment": "Immune cell activation by flow cytometry (CD69/CD25) on non-T non-NK lymphocytes in PBMC cultures", "assay_type": "cell-based, human", "details": "24-hour PBMC cultures", "protocol": "as §1, §2, §3, §4"}, "monocytes": {"system": "monocytes", "experiment": "Immune cell activation by flow cytometry (CD69) on monocytes in PBMC cultures", "assay_type": "cell-based, human", "details": "dose not specified", "protocol": "as §1, §2, §3, §4"}, "human immune cells": {"system": "human immune cells", "experiment": "In vitro bioassay screening of Test Products in cell cultures of human immune cells (overall summary)", "assay_type": "cell-based", "details": "sample preparation after 0.2 micron filtration", "protocol": "Bioassay screening of nutraceutical ingredients and one blend were performed to evaluate their potency and mechanisms of action. The screening involved testing in cell cultures involving human immune cells. As part of this process, selected immune ingredients currently on the market were compared for similarities and differences of mechanisms of action, as well as efficacy (active dose comparison). Eight Test Products labeled Test Products A-H, as noted in the various tables and explained below were employed in this study.\nThe water-soluble Test Products were prepared by taking 0.25 grams of powder into 5 mL of physiological saline. The suspension was incubated under gentle agitation for one hour, after which any remaining solids were removed by centrifugation. Insoluble, particulate Test Products were prepared by taking 0.5 grams of powder into 3 mL of physiological saline. One (1) mL ceramic beads (200 uM zirconium) were added, and bead milling performed by 10 cycles of repeated 60-second pulsing (vortex high speed, 60 one (1) second pulses) with placement of samples in an ice-bath between cycles. Subsequently, seven (7) mL of physiological saline was then added to bring the samples to a 50 mg/mL final concentration. […]"}, "Solubility in water": {"experiment": "Solubility in water", "assay_type": "physicochemical"}}}
{"substance": "paramylon [Test Product D]", "values": [{"measurement": "CD25 expression on T-cells", "setting": "T-cells; at lower doses", "value": "varying degrees of suppressing CD25 expression"}, {"measurement": "CD69 expression on T-cells", "setting": "T-cells; figures show T-cells", "value": "only exerted minor effects"}, {"measurement": "number of CD69/CD25 double-positive lymphocytes", "setting": "[1]", "value": "only exerted minor, if any, effects"}, {"measurement": "CD69 expression on non-T non-NK cells", "setting": "non-T non-NK lymphocytes; dose not specified (FIG. 19)", "value": "only exerted minor, if any, effects"}, {"measurement": "CD25 expression on non-T non-NK cells", "setting": "non-T non-NK lymphocytes; FIG. 21 shows CD25", "value": "only exerted minor, if any, effects"}, {"measurement": "CD69 expression on monocytes", "setting": "monocytes", "value": "only exerted minor, if any, effects"}, {"measurement": "activity in the in vitro screen (overall)", "setting": "human immune cells", "value": "essentially no activity"}, {"measurement": "activity in the in vitro screen (overall)", "setting": "human immune cells; listed as Sample D", "value": "essentially inactive"}, {"measurement": "solubility in water", "setting": "Solubility in water", "value": "completely insoluble"}]}
